Results reported in patent publication US12590099B2, “Inhibitors of histone deacetylase useful for the treatment or prevention of HIV infection” (Merck Sharp & Dohme LLC, priority 2018, dated 2026).
Where two headings read alike, the source gives them in different places.

How the values were obtained:
Recombinant human HDAC2 = molecular target: T1, Recombinant human HDAC2 (Homo sapiens, UniProt Q92769); test: Human HDAC enzyme inhibitor Fluor-de-Lys assay, HDAC2; format: biochemical
T1 construct: Full length human HDAC2-FLAG was expressed in baculovirus infected Sf9 cells; FLAG (C); made in house; host or cells: Sf9 (baculovirus)
Procedure: (§1) Human HDAC Enzyme Inhibitor Fluor-De-Lys Assay
(§2) Recombinant human HDAC8 (BML-SE145-0100) and HDAC10 (BML-SE559-0050) enzymes, HDAC substrates BML-KI104 and BML-KI178, and HDAC developer solutions BML-KI105 and BML-KI176 were purchased from Enzo Life Sciences. […] HDAC inhibitor suberoylanilide hydroxamic acid (SAHA) was obtained from Indofine and trichostatin A (TSA) was obtained from Sigma-Aldrich.
(§3) Recombinant human HDAC1, HDAC2, and HDAC3/SMRT heterodimer were prepared by Merck Research Laboratories. […] The eluted protein was then passed over an anti-HDAC1 immunoaffinity column to remove any complexes containing HDAC1. […]
(§4) The histone deacetylase activities of HDAC1, HDAC2, HDAC3, HDAC6, and HDAC8 were measured in modified FLUOR DE LYS assays in 384-well format. In this assay, HDAC enzymes are initially incubated with an ε-acetyl (or -trifluoroacetyl)-L-lysine-containing substrate with a C-terminal amide having aminomethylcoumarin as the amine component. HDACs cleave the ε-acetyl group, rendering the resulting product susceptible to AMC cleavage by trypsin. The released AMC is then detected by its fluorescence.
(§5) The HDAC3/SMRT assay employed buffer B, consisting of 20 mM HEPES, pH 8.0, 1 mM MgCl2, 50 mM NaCl, 2.7 mM KCl, 0.05% BSA, 0.005% Tween 20, and 10 μM IP4. […] The HDAC8 assay employed buffer D, consisting of 20 mM HEPES, pH 8.0, 1 mM MgCl2, 100 mM NaCl, 20 mM KCl, 0.10% n-octyl-β-D-glucoside (Anatrace) and 0.05% BSA. All steps were performed at room temperature (23° C.). The assay was performed by pre-incubating serial dilutions of test compounds with the target HDAC prior to initiation with substrate. Each compound was titrated in a 10-point dose response, using a 1:3 fold dilution scheme, with 0.15 ul of solution added by ECH0555 to the plate, followed by the addition of 20 μl of the appropriate HDAC isoform diluted in appropriate assay buffer. […] Final conditions used for each assay were: 1. HDAC 1, 0.3 nM total enzyme, 20 μM substrate BML-KI104; 2. […] HDAC 3/SMRT, 0.3 nM total enzyme, 20 μM substrate BML-KI104; 4. […] The reactions were stopped and developed by addition of 30 ul of HDAC developer solution containing a saturating level of HDAC inhibitor as follows: 1.

HDAC6 = molecular target: T2, HDAC6 (Homo sapiens, UniProt Q9UBN7); test: Human HDAC enzyme inhibitor Fluor-de-Lys assay, HDAC6; format: biochemical
T2 sequence (Q9UBN7 1-1215): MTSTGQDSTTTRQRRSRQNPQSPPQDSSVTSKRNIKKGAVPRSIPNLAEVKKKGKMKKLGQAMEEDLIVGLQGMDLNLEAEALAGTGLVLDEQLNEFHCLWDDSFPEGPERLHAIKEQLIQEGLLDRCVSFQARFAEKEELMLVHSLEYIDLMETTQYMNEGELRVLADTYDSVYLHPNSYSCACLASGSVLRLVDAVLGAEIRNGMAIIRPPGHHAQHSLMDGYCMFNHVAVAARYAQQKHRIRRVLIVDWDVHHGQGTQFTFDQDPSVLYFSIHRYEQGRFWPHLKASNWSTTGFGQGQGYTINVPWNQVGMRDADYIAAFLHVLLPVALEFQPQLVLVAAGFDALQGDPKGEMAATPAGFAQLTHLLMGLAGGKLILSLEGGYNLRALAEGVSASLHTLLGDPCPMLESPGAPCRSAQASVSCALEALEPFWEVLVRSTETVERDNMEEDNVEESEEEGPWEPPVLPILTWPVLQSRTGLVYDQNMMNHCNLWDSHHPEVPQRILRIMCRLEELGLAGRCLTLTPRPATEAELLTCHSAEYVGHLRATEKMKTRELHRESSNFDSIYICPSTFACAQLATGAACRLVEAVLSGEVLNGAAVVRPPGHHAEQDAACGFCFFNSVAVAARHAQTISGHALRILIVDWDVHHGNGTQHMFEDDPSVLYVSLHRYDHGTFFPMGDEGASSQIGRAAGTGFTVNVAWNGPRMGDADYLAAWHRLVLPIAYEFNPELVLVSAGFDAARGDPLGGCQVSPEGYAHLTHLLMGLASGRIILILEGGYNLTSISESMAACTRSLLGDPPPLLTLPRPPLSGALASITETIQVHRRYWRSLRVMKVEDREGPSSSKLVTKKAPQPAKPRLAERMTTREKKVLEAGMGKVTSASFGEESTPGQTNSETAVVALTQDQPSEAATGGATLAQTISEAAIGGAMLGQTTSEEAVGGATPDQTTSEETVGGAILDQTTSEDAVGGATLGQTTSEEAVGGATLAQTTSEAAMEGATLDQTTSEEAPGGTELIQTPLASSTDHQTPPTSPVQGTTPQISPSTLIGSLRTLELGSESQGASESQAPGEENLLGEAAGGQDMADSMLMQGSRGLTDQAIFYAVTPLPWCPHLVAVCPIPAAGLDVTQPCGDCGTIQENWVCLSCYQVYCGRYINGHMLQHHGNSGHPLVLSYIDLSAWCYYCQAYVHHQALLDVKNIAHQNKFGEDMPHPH

Recombinant human HDAC8 = molecular target: T3, Recombinant human HDAC8 (Homo sapiens, UniProt Q9BY41); test: Human HDAC enzyme inhibitor Fluor-de-Lys assay, HDAC8; format: biochemical
T3 construct: purchased Enzo Life Sciences BML-SE145-0100
T3 sequence (Q9BY41 1-377): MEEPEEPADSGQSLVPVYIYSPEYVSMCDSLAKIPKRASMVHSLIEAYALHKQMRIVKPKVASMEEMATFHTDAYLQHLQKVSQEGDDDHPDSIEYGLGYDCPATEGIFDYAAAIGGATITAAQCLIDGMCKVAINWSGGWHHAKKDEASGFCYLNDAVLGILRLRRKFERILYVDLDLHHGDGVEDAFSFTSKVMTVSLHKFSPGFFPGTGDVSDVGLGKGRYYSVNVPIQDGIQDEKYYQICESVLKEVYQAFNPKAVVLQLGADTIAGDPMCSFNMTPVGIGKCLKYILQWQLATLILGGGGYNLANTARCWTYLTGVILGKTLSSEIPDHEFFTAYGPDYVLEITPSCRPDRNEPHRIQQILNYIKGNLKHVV

KARN cells (Jurkat 2C4) = test: cells; format: cell-based; conditions: Homo sapiens, Jurkat
Summary of the method: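 Luminescence (Steady-Glo, 10 min, room temperature) measured next day in KARN Jurkat 2C4 cells given compounds at up to 40 μM final with 0.4% DMSO. Percent activation normalised to DMSO (0%) and 2 μM SAHA (100%), fitted by 4-parameter curve.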

Recombinant human HDAC1 = molecular target: T4, Recombinant human HDAC1 (Homo sapiens, UniProt Q13547); test: Human HDAC enzyme inhibitor Fluor-de-Lys assay, HDAC1; format: biochemical; conditions: recombinant human HDAC1, Fluor-de-Lys assay
T4 construct: FLAG (C); made in house
Procedure: as §1, §2, §3, §4, §5

[1] = molecular target: T5, Recombinant human HDAC3/SMRT heterodimer (Homo sapiens, UniProt O15379); test: Human HDAC enzyme inhibitor Fluor-de-Lys assay, HDAC3/SMRT; format: biochemical; conditions: recombinant human HDAC3/SMRT, Fluor-de-Lys assay
T5 construct: FLAG (C); made in house

[2] = recombinant human HDAC2, Fluor-de-Lys assay
[3] = read-out: Karn EC50 (nM) 0.1% NHS, 0.1% normal human serum, luciferase induction, 100% = 2 μM SAHA
[4] = read-out: Karn EC50 (nM) 5% NHS, 5% normal human serum, luciferase induction, 100% = 2 μM SAHA
[5] = recombinant human HDAC8, Fluor-de-Lys assay

T5 sequence (O15379 whole entry): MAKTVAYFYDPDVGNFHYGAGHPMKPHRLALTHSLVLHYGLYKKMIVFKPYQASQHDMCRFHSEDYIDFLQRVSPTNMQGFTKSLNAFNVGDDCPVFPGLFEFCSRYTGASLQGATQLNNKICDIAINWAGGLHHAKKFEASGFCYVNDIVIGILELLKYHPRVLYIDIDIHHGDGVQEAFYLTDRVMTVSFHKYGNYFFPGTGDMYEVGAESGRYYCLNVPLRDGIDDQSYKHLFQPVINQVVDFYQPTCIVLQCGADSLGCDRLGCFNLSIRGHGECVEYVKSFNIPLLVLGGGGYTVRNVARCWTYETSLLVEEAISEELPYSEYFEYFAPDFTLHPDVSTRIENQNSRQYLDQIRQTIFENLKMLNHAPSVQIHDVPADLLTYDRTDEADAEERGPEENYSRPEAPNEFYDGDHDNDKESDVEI
T5 sequence (Q9Y618 1-899 partner limits assumed): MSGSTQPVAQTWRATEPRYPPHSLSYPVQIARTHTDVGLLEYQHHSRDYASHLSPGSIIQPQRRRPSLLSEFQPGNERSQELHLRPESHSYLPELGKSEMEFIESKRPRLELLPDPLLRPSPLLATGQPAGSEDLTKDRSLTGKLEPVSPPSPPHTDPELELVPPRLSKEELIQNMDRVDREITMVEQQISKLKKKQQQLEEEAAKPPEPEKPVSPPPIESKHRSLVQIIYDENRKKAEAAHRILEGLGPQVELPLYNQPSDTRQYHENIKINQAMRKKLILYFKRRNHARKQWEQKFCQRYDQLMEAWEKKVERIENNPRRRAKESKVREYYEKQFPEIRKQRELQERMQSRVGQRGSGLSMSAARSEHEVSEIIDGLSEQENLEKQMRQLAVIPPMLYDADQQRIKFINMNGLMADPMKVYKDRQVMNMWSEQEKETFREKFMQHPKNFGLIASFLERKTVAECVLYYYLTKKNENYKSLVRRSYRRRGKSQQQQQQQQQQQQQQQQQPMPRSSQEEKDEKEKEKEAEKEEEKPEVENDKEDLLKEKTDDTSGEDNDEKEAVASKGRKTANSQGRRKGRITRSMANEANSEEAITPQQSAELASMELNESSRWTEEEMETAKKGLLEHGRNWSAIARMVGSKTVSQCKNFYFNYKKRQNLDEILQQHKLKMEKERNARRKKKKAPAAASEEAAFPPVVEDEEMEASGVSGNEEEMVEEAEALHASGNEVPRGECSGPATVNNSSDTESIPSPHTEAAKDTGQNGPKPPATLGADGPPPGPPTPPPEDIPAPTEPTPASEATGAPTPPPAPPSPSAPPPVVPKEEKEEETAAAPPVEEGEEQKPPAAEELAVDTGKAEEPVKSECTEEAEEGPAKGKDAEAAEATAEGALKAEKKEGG
T1 sequence (Q92769 whole entry): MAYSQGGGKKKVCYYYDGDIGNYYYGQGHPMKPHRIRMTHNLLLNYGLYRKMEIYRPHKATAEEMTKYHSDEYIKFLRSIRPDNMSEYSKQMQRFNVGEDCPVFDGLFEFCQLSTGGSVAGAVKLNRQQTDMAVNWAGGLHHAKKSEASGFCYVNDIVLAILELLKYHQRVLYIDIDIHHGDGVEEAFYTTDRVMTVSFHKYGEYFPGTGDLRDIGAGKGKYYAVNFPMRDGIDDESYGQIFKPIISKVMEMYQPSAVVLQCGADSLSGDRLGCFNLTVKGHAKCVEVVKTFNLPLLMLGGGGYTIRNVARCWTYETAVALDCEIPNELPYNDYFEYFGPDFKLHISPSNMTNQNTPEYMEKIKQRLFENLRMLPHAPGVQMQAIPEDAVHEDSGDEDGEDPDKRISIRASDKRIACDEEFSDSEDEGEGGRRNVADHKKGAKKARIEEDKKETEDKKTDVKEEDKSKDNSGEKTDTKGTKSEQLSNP
T4 sequence (Q13547 whole entry): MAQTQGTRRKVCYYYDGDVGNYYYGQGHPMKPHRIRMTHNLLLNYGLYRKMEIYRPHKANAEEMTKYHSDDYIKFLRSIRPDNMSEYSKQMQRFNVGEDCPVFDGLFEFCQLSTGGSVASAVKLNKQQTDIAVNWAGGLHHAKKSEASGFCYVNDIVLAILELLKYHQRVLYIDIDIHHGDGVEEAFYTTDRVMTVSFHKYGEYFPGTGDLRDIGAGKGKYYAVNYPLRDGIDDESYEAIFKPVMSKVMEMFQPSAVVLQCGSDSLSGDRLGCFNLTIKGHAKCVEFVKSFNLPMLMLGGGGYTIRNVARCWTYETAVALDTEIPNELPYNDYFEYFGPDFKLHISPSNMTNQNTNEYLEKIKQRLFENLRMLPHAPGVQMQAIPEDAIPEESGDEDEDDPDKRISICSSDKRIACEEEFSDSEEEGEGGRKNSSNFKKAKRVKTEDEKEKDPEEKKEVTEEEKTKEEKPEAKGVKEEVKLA

| Compound | IC50 (Recombinant human HDAC2) [nM] | IC50 (HDAC6) [nM] | IC50 (Recombinant human HDAC8) [nM] | EC50 (KARN cells (Jurkat 2C4); read-out: Karn EC50 (nM) 0.1% NHS, 0.1% normal human serum) [nM] | EC50 (KARN cells (Jurkat 2C4); read-out: Karn EC50 (nM) 5% NHS, 5% normal human serum) [nM] | IC50 (Recombinant human HDAC1) [nM] | IC50 (Recombinant human HDAC2; [2]) [nM] | IC50 [1] [nM] | EC50 (KARN cells (Jurkat 2C4); [3]) [nM] | EC50 (KARN cells (Jurkat 2C4); [4]) [nM] | IC50 (HDAC6; HDAC6, Fluor-de-Lys assay) [nM] | IC50 (Recombinant human HDAC8; [5]) [nM] |
| --- | --- | --- | --- | --- | --- | --- | --- | --- | --- | --- | --- | --- |
| CCC(=O)CCCCC[C@H](NC(=O)[C@H]1CC12CCN(CC)CC2)c1ncc(-c2cc3cccnc3cc2OC)o1 [Compound 169] | 2.2 | 83 | 7580 | 91 | 78 |  |  |  |  |  |  |  |
| CCC(=O)CCCCC[C@H](NC(=O)C1CC12CCN(CC)CC2)c1nc(-c2ccc(F)cc2)[nH]c1-c1cccc(OC)c1 (some centres unmarked) [Compound 246] |  |  |  |  |  | 177 | 769 | 155 | 1940 | 3770 |  |  |
| CCC(=O)CCCCC[C@H](NC(=O)[C@H]1CC12CCN(C)CC2)c1ncc(-c2ccn3ncnc3c2)[nH]1 [Compound 267] |  |  |  |  |  | 46.7 | 170 |  |  |  | 6370 | 11600 |
| CCC(=O)CCCCC[C@H](NC(=O)C1NC(=O)CC12CN(C(=O)OC(C)(C)C)C2)c1nnc(-c2cc3ccccc3nc2OC)o1 (some centres unmarked) [Compound 302] |  |  |  |  |  | 49.4 | 121 | 37.6 | 4460 | 7430 |  | > 45000 |
| CCC(=O)CCCCC[C@H](NC(=O)C1NC(=O)CC12CNC2)c1nnc(-c2cc3ccccc3nc2OC)o1 (some centres unmarked) [Compound 304] |  |  |  |  |  | 3.59 | 8 | 3.23 | 17300 |  |  | 20800 |
| CCC(=O)CCCCC[C@H](NC(=O)C1NC(=O)CC12CN(C)C2)c1nnc(-c2cc3ccccc3nc2OC)o1 (some centres unmarked) [Compound 309] |  |  |  |  |  | 6.91 | 19.3 | 7.19 | 1350 | 1920 |  | 24000 |
| CCC(=O)CCCCC[C@H](NC(=O)[C@H]1CC12CCN(CCC(F)(F)F)CC2)c1ncc(-c2cc3ccccc3nc2OC)[nH]1 [Compound 332] |  |  |  |  |  |  |  |  | 78 | 343 | 745 | 14100 |
| CCC(=O)CCCCC[C@H](NC(=O)[C@H]1CC12CCN(CC(F)(F)F)CC2)c1ncc(-c2cc3ccccc3nc2OC)[nH]1 [Compound 333] |  |  |  |  |  |  |  |  | 113 | 719 | 1110 | 6090 |
| CCC(=O)CCCCC[C@H](NC(=O)[C@H]1CC12CCN(CC(C)C)CC2)c1ncc(-c2cc3ccccc3nc2OC)[nH]1 [Compound 335] |  |  |  |  |  |  |  |  | 31 | 63 | 329 | 3280 |
| CCC(=O)CCCCC[C@H](NC(=O)[C@H]1CC12CCN(CC1CC1)CC2)c1ncc(-c2cc3ccccc3nc2OC)[nH]1 [Compound 336] |  |  |  |  |  |  |  |  | 16 | 30 | 189 | 3130 |
| CCC(=O)CCCCC[C@H](NC(=O)[C@H]1CC12CCN(C(C)C)CC2)c1ncc(-c2cc3ccccc3nc2OC)[nH]1 [Compound 337] |  |  |  |  |  |  |  |  | 32 | 57 | 160 | 5660 |
| CCC(=O)CCCCC[C@H](NC(=O)[C@H]1CCC12CCN(CC)CC2)c1ncc(-c2cc3ccccc3nc2OC)[nH]1 [Compound 338] |  |  |  |  |  |  |  |  | 44 | 111 | 405 | 2930 |
| CCC(=O)CCCCC[C@H](NC(=O)[C@H]1CC12CCN(CC)CC2)c1ncc(-c2ccc3cccnc3c2)[nH]1 [Compound 344] |  |  |  |  |  |  |  |  | 37 | 54 | 862 | 3420 |
| CCC(=O)CCCCC[C@H](NC(=O)[C@H]1CC12CCN(CC)CC2)c1ncc(-c2ccc3ncccc3c2)[nH]1 [Compound 346] |  |  |  |  |  |  |  |  | 46 | 57 | 545 | 3160 |
| CCC(=O)CCCCC[C@H](NC(=O)[C@H]1CC12CCN(C)CC2)c1ncc(-c2ccc3cnc(Cl)cc3c2)[nH]1 [Compound 351] |  |  |  |  |  | 1.57 | 7.1 | 1.32 |  |  | 1470 | 5830 |
| CCC(=O)CCCCC[C@H](NC(=O)[C@H]1CC[C@]2(CC1)OC(=O)c1ncccc12)c1ncc(-c2ccccc2)[nH]1 [Compound 377] |  |  |  |  |  | 47.1 | 232 | 6.9 |  |  | 8290 | 3010 |
| CCC(=O)CCCCC[C@H](NC(=O)[C@H]1CC12CCN(CC1CC1)CC2)c1ncc(-c2cc3cccnc3cc2OC)[nH]1 [Compound 394] |  |  |  |  |  |  |  |  | 18 | 24 | 76 | > 900 |
